What all share (assay): inhibition of tumour cell growth, NCI panel, 48 h
For test [1], the system named is ACHN renal.
Test [2] deals with NCI-H460 lung.
Test [3] deals with OVCAR-8 ovarian.
In test [4] the test system is SF-268 CNS.
For test [5], the system named is SK-MEL-2 melanoma.
Test [6] concerns SK-MEL-28 melanoma.
In test [7] the test system is SNB-19 CNS.
For test [8], the system named is SW-620 colon.
The test system of test [9] is NCI-H522 lung.

The source of these data is PubChem BioAssay (NCI).

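Values below derive from 48-hour exposures of cells grown in 96-well plates, with endpoints linearly interpolated between the two concentrations bracketing the appropriate inhibition level. TGI: concentration producing complete growth inhibition.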

As to `O=C(O)/C(=C/C=C/c1ccccc1)c1csc(-c2nc(/C(=C\C=C\c3ccccc3)C(=O)O)cs2)n1`, the TGI in test [1] was 92.5 µM; in test [2], more than 100 µM; in [3], more than 100 µM; in test [4] it was more than 100 µM; in test [5] it was 43.6 µM; in [6], more than 100 µM. Further, the values for the TGI in test [7] and in test [8] were 58.1 µM and more than 100 µM, respectively.

For `S=c1cc(S)sc2c1c(=S)sc1nc3ccccn3c(=S)c12`, the TGI in [1] was more than 100 µM; in [2] it was 92.1 µM; in test [3], more than 100 µM; in [5], more than 100 µM; in test [6] it was more than 100 µM; in test [7] it was more than 100 µM. In test [8], this compound returned a TGI of more than 100 µM.

As to `O=C(Cn1ccnc1[N+](=O)[O-])c1ccc(F)cc1`, the TGI in [1], in test [2], in [9], in test [3], in test [4] and in test [5] was more than 100 µM throughout. Besides, the TGI in test [6], in [7] and in test [8] was more than 100 µM throughout.

With `COC1OC(COCc2ccc(Cl)cc2)C(OCc2ccc(Cl)cc2)C1N=[N+]=[N-]` (centres undefined), the TGI in test [1], in test [2], in test [9], in test [3], in [5] and in [6] was more than 100 µM throughout. The TGI in [7] and in test [8] was more than 100 µM each time.

In the case of `C1=CC=C2NCCCNC3=CC=CC=CC3=NCCCN=C2C=C1`, the TGI in test [1], in [2], in test [3], in [4], in [5] and in test [6] was more than 100 µM each time. In addition, the TGI in [7] and in [8] was more than 100 µM in each case.

Regarding `CC(C)(C)c1cc2c3c(c1)C(C(F)(F)F)(C(F)(F)F)O[Te]3(C)OC2(C(F)(F)F)C(F)(F)F`, the TGI in test [1], in [2], in test [9], in test [4], in [5] and in test [6] was more than 100 µM throughout. Also, the TGI in test [7] and in [8] was more than 100 µM each time.

`CC(=O)OC(CCC1(C)OC1COc1ccc(CCNC(=O)c2ccccc2)cc1)C(C)(C)OC(C)=O` (centres undefined): the TGI was more than 100 µM in test [1]; 36.7 µM in test [2]; more than 100 µM in test [9]; 41.4 µM in [3]; more than 100 µM in test [4]; 60.4 µM in [5]. Besides, the figures for the TGI in test [6] and in [8] were 91.8 µM and more than 100 µM, respectively.

Take `CC1(C)Cc2cc(C(=O)O)c3c(c2C1=O)COCC3`: the TGI in [1], in test [2], in [9], in test [3], in test [4] and in test [5] was more than 100 µM in each case. For the same compound, the TGI in test [7] and in test [8] was more than 100 µM in each case.

In the case of `O=CC[C@H]1CCc2ccccc2C12CCC(=O)CC2`, the TGI in [1], in [2], in test [9], in test [3], in [4] and in test [5] was more than 100 µM in each case. Moreover, the TGI in [7] and in test [8] was more than 100 µM in each case.

As to `CCc1cccc(C(C)C)c1NC(=O)C(=O)C(CC(=O)Nc1ccc(Cl)c(Cl)c1)C(=O)OC` (centres undefined), the TGI in [1], in [2], in [9], in test [3], in test [4] and in test [5] was more than 100 µM throughout. Moreover, the TGI in test [6] was more than 100 µM; in test [7], more than 100 µM; in test [8], 24.6 µM.

Take `Cc1cc(C)nc(NS(=O)(=O)c2ccc(Nc3c4ccc(Cl)cc4nc4c(C(=O)Nc5ccc(S(N)(=O)=O)cc5)cccc34)cc2)n1`: the TGI in test [1] is more than 100 µM; in [2], 60.8 µM; in test [9], 24.1 µM; in test [3], 37.7 µM; in test [4] it was more than 100 µM; in test [6] it was more than 100 µM. This compound came in with a TGI in test [7] of 93.9 µM.

For `CN(C)CCNC(=O)c1cccc2c1nc(-c1ccccc1)c1ccccc12`, the TGI in [1] amounted to 13.4 µM; in [2], 13.3 µM; in test [3], 19.6 µM; in [4] it was 18.5 µM; in [5], 23.6 µM; in test [6] it was 21.3 µM. Also, the TGI in test [7] came to 23.8 µM; in test [8], 15.5 µM.

As for `CCc1cccc(C(C)C)c1N1C(=O)C(=O)C(c2nc3ccccc3s2)C(=O)C1=O`, the TGI in test [1] was more than 50 µM; in test [2] it was more than 50 µM; in [9] it was 48.6 µM; in test [3], more than 50 µM; in test [4] it was more than 50 µM; in test [5], more than 50 µM. Also, the TGI in [6], in [7] and in test [8] was more than 50 µM each time.

Turning to `Clc1ccc(C2SCc3nc4ccccc4n32)cc1Cl` (centres undefined), the TGI worked out at 29.1 µM in test [1]; 28.1 µM in test [2]; 25 µM in test [9]; 26.9 µM in [3]; 37.6 µM in test [4]; 35.5 µM in test [5]. Moreover, the TGI in [6] was determined as 25.4 µM; in [7], 22.4 µM; in [8], 28.6 µM.

For the compound `CC1C[C@@H]2C(=O)NC(=O)[C@@H]2c2c1c1ccccc1n2C` (some centres undefined), the TGI in test [2], in [9], in test [3], in test [4], in [5] and in test [6] was more than 100 µM each time. Moreover, the TGI in test [7] and in test [8] was more than 100 µM throughout.

In the case of `C=C(Br)N(CC)CC`, the TGI in test [1], in test [2], in test [9], in [3], in test [4] and in test [5] was more than 100 µM throughout. For the same compound, the TGI in test [6], in test [7] and in test [8] was more than 100 µM throughout.

Take `CCC1CN2CCc3c([nH]c4ccccc34)C2C[C@@H]1CC(=O)N(C)C` (some centres undefined): the TGI in test [1], in test [2], in test [9], in test [3], in test [4] and in test [5] was more than 100 µM in each case. The TGI in test [6], in [7] and in test [8] was more than 100 µM each time.

On to `Cc1ccc(S(=O)(=O)OCC23CCC(CC2)C2CC23)cc1` (centres undefined), for which the TGI in test [1], in test [2], in test [3], in [4], in test [6] and in test [7] was more than 100 µM each time. Also, the TGI in test [8] is more than 100 µM.

Take `CCCCCCCCCCCCCP(=O)(O)OCC`: the TGI in test [1], in test [2], in test [9], in test [3], in test [4] and in test [5] was more than 100 µM each time. For the same compound, the TGI in [6], in [7] and in test [8] was more than 100 µM each time.

In the case of `COC(=O)CCC(=O)CC(=O)C(=O)Nc1c(Cl)cc([N+](=O)[O-])cc1Cl`, the TGI in [1], in test [2], in test [9], in test [3], in [4] and in test [5] was more than 100 µM each time. For the same compound, the TGI in test [6] and in test [7] was more than 100 µM each time.

On to `CC(=O)c1ccc(NC(=O)C(=O)Nn2c(=S)[nH]c3ccccc3c2=O)cc1`, for which the TGI in test [1], in test [2], in [9], in test [3], in test [4] and in test [5] was more than 100 µM throughout. For the same compound, the TGI in test [6], in test [7] and in test [8] was more than 100 µM in each case.

Regarding `O=C1C2C3C=CC(C2C(=O)N1COP(=O)(O)O)C1C2C(=O)N(COP(=O)(O)O)C(=O)C2C31` (centres undefined), the TGI in [1] is more than 100 µM; in test [2], more than 59.5 µM; in test [9], more than 100 µM; in [3] it was more than 100 µM; in test [4], more than 100 µM; in test [5] it was more than 100 µM. Also, the TGI is more than 100 µM in [6], more than 100 µM in [7] and more than 65.2 µM in test [8].

For the compound `CCOC(=O)C1=C(C)N(c2ccc(C)cc2)C2=C(C(=O)N(c3ccccc3)C2c2ccccc2)C1c1ccccc1` (centres undefined), the TGI in test [1], in [2], in test [3], in test [4], in [5] and in test [6] was more than 25 µM throughout. The TGI in test [7] and in [8] was more than 25 µM each time.

On to `COCCCNC(=O)CC(=O)NCCCOC`, for which the TGI in test [1], in test [2], in test [9], in test [3], in test [4] and in [5] was more than 100 µM in each case. In addition, the TGI in [6], in [7] and in test [8] was more than 100 µM throughout.

`O=[N+]([O-])c1cccc(C2ON2C2CCCCC2)c1` (centres undefined): the TGI in [1] was 32 µM; in test [2], 32.5 µM; in test [9] it was 33.5 µM; in test [3], 32.8 µM; in [4], 51 µM; in [5], 62.8 µM. Also, the results for the TGI in [6], in test [7] and in [8] were more than 100 µM, 84.5 µM and 24.7 µM, respectively.

In the case of `O=C(CCC(=O)C(C(=O)c1ccccc1)c1ccccc1)Nc1cccc(C(F)(F)F)c1` (centres undefined), the TGI in [1], in test [2], in test [9], in test [3], in test [4] and in test [5] was more than 100 µM throughout. Also, the TGI in test [7] and in test [8] was more than 100 µM each time.

Consider `COc1cc2c3c(c1OC)-c1c(ccc4c1OCO4)CC3(C#N)N(C(=O)c1ccccc1)CC2` (centres undefined), for which the TGI in test [2], in [9], in test [3], in [4], in test [7] and in test [8] was more than 100 µM each time.

As to `O=C(CC1(O)C(=O)Nc2c(Cl)cc(Cl)cc21)c1cccc2ccccc12` (centres undefined), the TGI in test [1] was 30.8 µM; in [2] it was 31.1 µM; in [9] it was 28.9 µM; in [3], 32.2 µM; in [4], 40.4 µM; in [5], 32.6 µM. Besides, the TGI stood at 34.1 µM in test [6], 27.9 µM in test [7] and 31.8 µM in test [8].

In the case of `COc1cc(OC)c(C2CC=Cc3c(OC)cc(OC)c(OC)c32)cc1OC` (centres undefined), the TGI in test [1], in [2], in test [3], in test [4], in test [5] and in test [6] was more than 100 µM throughout. Besides, the TGI in [8] is more than 100 µM.

For `C[C@]1(CO)CCC[C@@]2(C)C1CC[C@H]1CC3C[C@]12CC[C@]3(C)O` (some centres undefined), the TGI in [1] was more than 100 µM; in [2], 36.8 µM; in test [9], 31.1 µM; in test [3] it was more than 100 µM; in test [4], more than 100 µM; in [6], more than 100 µM. The TGI in [7] and in test [8] was more than 100 µM in each case.

For `NCCCNCCCCN(CCCN)/[N+]([O-])=N\O`, the TGI in test [1], in test [2], in [3], in test [4], in test [5] and in [6] was more than 100 µM in each case. Further, the TGI in test [7] and in [8] was more than 100 µM throughout.
